Results from paper PMC6035881 (Antiviral Research, 2018).
Several values for one entry are separate records, joined by “and”; a condition that tells them apart may be missing. Equal entries are not always repeated.

How the values were obtained:
[1] = tested on: RVFV; conditions: hamster, in vivo; cited from earlier work
[2] = tested on: RVFV (strain ZH501); parameters: species or system Syrian golden hamsters; conditions: hamster, in vivo
[3] = tested on: RVFV (MP-12 strain); experiment: microbe, parasite or virus in culture; conditions: Rift Valley fever virus, Vero 76, 120 h, read-out: EC50 (CPE reduction assay)
[4] = tested on: RVFV (strain ZH501); parameters: species or system Syrian golden hamsters; conditions: hamster, in vivo, ip
[5] = tested on: RVFV (strain ZH501); parameters: species or system Syrian golden hamsters; conditions: hamster, in vivo; remark: listed apart in the source
[6] = tested on: RVFV; conditions: cited from earlier work
[7] = tested on: more than 20 different viruses across eight different virus families; conditions: read-out: in vitro antiviral potency EC50; cited from earlier work
[8] = in vitro; conditions: African green monkey
[9] = tested on: RVFV; conditions: in vivo; cited from earlier work
[10] = tested on: RVFV (MP-12 strain); experiment: microbe, parasite or virus in culture; conditions: Rift Valley fever virus, Vero 76, read-out: EC90 (VYR)
[11] = tested on: RVFV (MP-12 strain)
[12] = hamster, in vivo, ip; cited from earlier work
[13] = tested on: RVFV (MP-12 strain); remark: listed apart in the source

In the case of `NC(=O)c1nc(F)c[nH]c1=O` [favipiravir], the “hamsters protected from lethal RVFV challenge” value [1] is listed as 70–80%.

In the case of `Nc1ncnc2c([C@@H]3N[C@H](CO)[C@@H](O)[C@H]3O)c[nH]c12` [Galidesivir], the “animals surviving the lethal RVFV challenge” value [2] is reported as 70%, the protection from mortality [2] is reported as “up to 70%” and the EC50 [3] is reported as 54 µg/mL and 20.4 µM. For the same molecule, the “levels of virus across all tissues and serum, day 2 p.i.” value [4] was “undetectable”, the “RVFV in serum, spleen or brain on day 2 p.i.” value [5] was “undetectable” and the “animals with detectable viral load in the liver on day 2 p.i.” value [5] was “only a single animal”. For the same molecule, the EC50 [6] was 41.6 µM, the EC90 [6] was 98 µM and the EC50 [7] was less than 50 µM. For the same molecule, the CC50 [8] was 280 µg/mL and 106 µM, the “protection in mouse model of RVFV infection” value [9] was “partial protection” and the EC90 [10] was 37 µg/mL and 13.9 µM. For the same molecule, the “SI (CC50/EC50)” value [11] was 5.2, the maximum tolerated dose [12] was 200 mg/kg/day and the “SI (CC50/EC90)” value [13] was 7.6.

With `NC(=O)c1ncn([C@@H]2O[C@H](CO)[C@@H](O)[C@H]2O)n1` [Ribavirin, reference compound] the survival [2] was 30% and the “virus in day 2 serum and tissue samples” value [5] was “devoid of virus”.
